The source of these data is patent US7964594B1, “Amino oxazine derivatives” (Hoffmann-La Roche Inc., priority 2009, dated 2011).

The structures appear in SMILES notation.

For the experiment, the target named is T1, BACE2 (Rattus norvegicus, UniProt Q6IE75).
T1 construct: endogenous cellular BACE2 in the Ins1e rat cell line; endogenous in cells; host or cells: INS-TMEM27 (INS1e-derived rat insulinoma cell line with doxycycline-inducible full-length hTMEM27)
T1 sequence (Q6IE75 63-514): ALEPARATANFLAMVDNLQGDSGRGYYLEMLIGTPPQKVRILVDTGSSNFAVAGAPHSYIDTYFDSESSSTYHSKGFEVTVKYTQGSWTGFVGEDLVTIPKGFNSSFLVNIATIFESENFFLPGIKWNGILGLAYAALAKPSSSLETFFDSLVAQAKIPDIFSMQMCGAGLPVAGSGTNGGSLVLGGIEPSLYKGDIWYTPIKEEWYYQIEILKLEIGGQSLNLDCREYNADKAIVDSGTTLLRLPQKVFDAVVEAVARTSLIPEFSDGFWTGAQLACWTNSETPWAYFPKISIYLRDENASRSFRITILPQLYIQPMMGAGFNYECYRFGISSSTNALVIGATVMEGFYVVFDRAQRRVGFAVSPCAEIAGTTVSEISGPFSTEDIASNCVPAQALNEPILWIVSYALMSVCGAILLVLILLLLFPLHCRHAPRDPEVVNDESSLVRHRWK
Nature of the experiment: Assay for BACE inhibition by measuring cellular TMEM27 cleavage (INS-TMEM27 cells, ELISA of shed TMEM27). It counts as cell-based. The settings on record: inhibition of human TMEM27 cleavage by endogenous cellular BACE2 in Ins1e rat cell line; ELISA of culture medium. The source says:
Assay for BACE Inhibition by Measuring Cellular TMEM27 Cleavage
The assay uses the principle of inhibition of human TMEM27 cleavage by endogenous cellular BACE2 in the Ins1e rat cell line and shedding from the cell surface into the culture medium, followed by detection in an ELISA assay. Inhibition of BACE2 prevents the cleavage and shedding in a dose-dependent manner.
The stable cell line “INS-TMEM27” represents an INS1e-derived cell line with inducible expression (using the TetOn system) of full-length hTMEM27 in a doxycycline-dependent manner. The cells were cultured throughout the experiment in RPMI1640+Glutamax (Invitrogen) Penicillin/Streptomycin, 10% Fetal bovine serum, […], […], 100 micrograms/ml G418 and 100 microgram/ml hygromycin and were grown in adherent culture at 37° C. in a standard CO2 cell culture incubator.
INS-TMEM27 cells were seeded in 96-well plates. After 2 days in culture, BACE2 inhibitor was added in a range of concentrations as required by the assay and after a further two hours, doxycycline was added to a final concentration of 500 ng/ml. The cells were incubated for a further 46 hours and the supernatant harvested for detection of shed TMEM27.
An ELISA assay (using a pair of mouse anti-human-TMEM27 antibodies, raised against the extracellular domain of TMEM27) was used for detection of TMEM27 in the culture medium. An IC50 for BACE2 inhibition was calculated using the ELISA readout for each inhibitor concentration with standard curve-fitting software XLfit (IDBS) for the Excel spreadsheet program.
As to `C[C@@]1(c2cc(NC(=O)c3ncc(F)cc3Cl)ccc2F)CCOC(N)=N1` [Example 35], the IC50 (commonly the concentration at which inhibition is half-maximal) stood at 11 nM.
Regarding `C[C@@]1(c2cc(NC(=O)c3ncccc3C(F)(F)F)ccc2F)CCOC(N)=N1` [Example 16, 3-Trifluoromethyl-pyridine-2-carboxylic acid [3-((S)-2-amino-4-methyl-5,6-dihydro-4H-[1,3]oxazin-4-yl)-4-fluoro-phenyl]-amide], the IC50 stood at 22 nM.
Then `COc1ccc(C(=O)Nc2ccc(F)c([C@]3(C)CCOC(N)=N3)c2)nc1` [Example 30, 5-Methoxy-pyridine-2-carboxylic acid [3-((S)-2-amino-4-methyl-5,6-dihydro-4H-[1,3]oxazin-4-yl)-4-fluoro-phenyl]-amide], with 12 nM; and `C[C@@]1(c2cc(NC(=O)c3ccc(F)cn3)ccc2F)CCOC(N)=N1` [Example 3, 5-Fluoro-pyridine-2-carboxylic acid [3-((S)-2-amino-4-methyl-5,6-dihydro-4H-[1,3]oxazin-4-yl)-4-fluoro-phenyl]-amide], with 6 nM; and `COc1ccc(C(=O)Nc2ccc(F)c([C@@]3(C)N=C(N)OCC34CC4)c2)nc1` [Example 39], with 91 nM.
Turning to `C[C@]1(c2cc(NC(=O)c3ncccc3F)ccc2F)N=C(N)OCC12CC2` [Example 37, 3-Fluoro-pyridine-2-carboxylic acid [3-((S)-6-amino-8-methyl-5-oxa-7-aza-spiro[2.5]oct-6-en-8-yl)-4-fluoro-phenyl]-amide], the midpoint of inhibition, the IC50, lay at 40 nM.
`C[C@@]1(c2cc(NC(=O)c3ccccn3)ccc2F)CCOC(N)=N1` [Example 4, Pyridine-2-carboxylic acid [3-((S)-2-amino-4-methyl-5,6-dihydro-4H-[1,3]oxazin-4-yl)-4-fluoro-phenyl]-amide]: the midpoint of inhibition, the IC50, lay at 230 nM.
Regarding `Cc1cc(Cl)cnc1C(=O)Nc1ccc(F)c([C@]2(C)CCOC(N)=N2)c1` [Example 26, 5-Chloro-3-methyl-pyridine-2-carboxylic acid [3-((S)-2-amino-4-methyl-5,6-dihydro-4H-[1,3]oxazin-4-yl)-4-fluoro-phenyl]-amide], the IC50 turned out to be 1 nM.
In the case of `C[C@@]1(c2cc(NC(=O)c3nccc4ccsc34)ccc2F)CCOC(N)=N1` [Example 11, Thieno[2,3-c]pyridine-7-carboxylic acid [3-((S)-2-amino-4-methyl-5,6-dihydro-4H-[1,3]oxazin-4-yl)-4-fluoro-phenyl]-amide], the concentration for half-maximal inhibition (IC50) stood at 28 nM.
As to `C[C@@]1(c2cc(NC(=O)CC(F)(F)F)ccc2F)CCOC(N)=N1` [Example 59, N-[3-((S)-2-Amino-4-methyl-5,6-dihydro-4H-[1,3]oxazin-4-yl)-4-fluoro-phenyl]-3,3,3-trifluoro-propionamide], the IC50 stood at 830 nM.
As for `C[C@]1(c2cc(NC(=O)c3ncc(F)cc3Cl)ccc2F)N=C(N)OCC12CC2` [Example 52, (S)—N-(3-(6-Amino-8-methyl-5-oxa-7-azaspiro[2.5]oct-6-en-8-yl)-4-fluorophenyl)-3-chloro-5-fluoropicolinamide], the IC50 stood at 16 nM.
For the compound `Cc1nc(C(=O)Nc2ccc(F)c([C@]3(C)CCOC(N)=N3)c2)cs1` [Example 28], half-maximal inhibition (IC50) was put at 4 nM.
`CC[C@@]1(c2cc(NC(=O)c3ccc(Cl)s3)ccc2F)CCOC(N)=N1` [Example 21] gave a 50% inhibitory concentration (IC50) of 240 nM.
`C[C@]1(c2cc(NC(=O)c3ncccc3C(F)(F)F)ccc2F)N=C(N)OCC12CC2` [Example 51, (S)—N-(3-(6-Amino-8-methyl-5-oxa-7-azaspiro[2.5]oct-6-en-8-yl)-4-fluorophenyl)-3-(trifluoromethyl)picolinamide]: the IC50 was found to be 73 nM.
In turn, `Cc1cc(Cl)cnc1C(=O)Nc1ccc(F)c([C@@]2(C)N=C(N)OCC23CC3)c1` [Example 38, 5-Chloro-3-methyl-pyridine-2-carboxylic acid [3-((S)-6-amino-8-methyl-5-oxa-7-aza-Spiro[2.5]oct-6-en-8-yl)-4-fluoro-phenyl]amide] had an IC50 of 5.1 nM.
